Experimental data: ChEMBL document CHEMBL3045203, “Synthesis and biological evaluation of some N4-substituted 5-nitroisatin-3-thiosemicarbazones” (Med Chem Res, 2012)
Activity calls are given as the source filed them. The calls are words filed in the database; no cut-off is given here.

How the values were obtained:
Lemna aequinoctialis [1] = experiment: Phytotoxicity against Lemna aequinoctialis assessed as growth inhibition at 100 ug/ml; assay type: functional; details: read-out: GI
Lemna aequinoctialis [2] = experiment: Phytotoxicity against Lemna aequinoctialis assessed as growth inhibition at 1000 ug/ml; assay type: functional; details: read-out: GI
Nakaseomyces glabratus = experiment: Antifungal activity against Candida glabrata at 200 ug/ml after 7 days; assay type: functional; details: 168 h
Fusarium solani = experiment: Antifungal activity against Fusarium solani at 200 ug/ml after 7 days; assay type: functional; details: 168 h
Microsporum canis = experiment: Antifungal activity against Arthroderma otae at 200 ug/ml after 7 days; assay type: functional; details: 168 h
Aspergillus flavus = experiment: Antifungal activity against Aspergillus flavus at 200 ug/ml after 7 days; assay type: functional; details: 168 h
Candida albicans = experiment: Antifungal activity against Candida albicans at 200 ug/ml after 7 days; assay type: functional; details: 168 h
[3] = Toxicity inArtemia salina (brine shrimp) larvae assessed as mortality after 24 hr; assay type: organism-based; details: artemia salina, in vivo; read-out: LD50
Homo sapiens [4] = species on record: Homo sapiens; experiment: Inhibition of […] urease using urea as substrate at 0.01 uM preincubated for 5 min before substrate addition measured after 10 min relative to control
Homo sapiens [5] = species on record: Homo sapiens; experiment: Inhibition of […] urease using urea as substrate at 0.1 uM preincubated for 5 min before substrate addition measured after 10 min relative to control
Homo sapiens [6] = species on record: Homo sapiens; experiment: Inhibition of […] urease using urea as substrate at 1 uM preincubated for 5 min before substrate addition measured after 10 min relative to control
Homo sapiens [7] = species on record: Homo sapiens; experiment: Inhibition of […] urease using urea as substrate at 10 uM preincubated for 5 min before substrate addition measured after 10 min relative to control
Homo sapiens [8] = species on record: Homo sapiens; experiment: Inhibition of […] urease using urea as substrate at 100 uM preincubated for 5 min before substrate addition measured after 10 min relative to control
Lemna aequinoctialis [9] = experiment: Phytotoxicity against Lemna aequinoctialis assessed as growth inhibition at 10 ug/ml; assay type: functional; details: read-out: GI
Lemna aequinoctialis [10] = experiment: Phytotoxicity against Lemna aequinoctialis assessed as growth inhibition at 5 ug/ml; assay type: functional; details: read-out: GI
Lemna aequinoctialis [11] = experiment: Phytotoxicity against Lemna aequinoctialis assessed as growth inhibition at 50 ug/ml; assay type: functional; details: read-out: GI
Lemna aequinoctialis [12] = experiment: Phytotoxicity against Lemna aequinoctialis assessed as growth inhibition at 500 ug/ml; assay type: functional; details: read-out: GI
[13] = Inhibition of […] urease using urea as substrate preincubated for 5 min before substrate addition measured after 10 min
Lemna aequinoctialis [14] = experiment: Phytotoxicity against Lemna aequinoctialis assessed as growth inhibition at 0.015 ug/ml; assay type: functional; details: read-out: GI
Homo sapiens [15] = species on record: Homo sapiens; experiment: Increase of […] urease using urea as substrate at 1 uM preincubated for 5 min before substrate addition measured after 10 min relative to control
Homo sapiens [16] = species on record: Homo sapiens; experiment: Increase of […] urease using urea as substrate at 10 uM preincubated for 5 min before substrate addition measured after 10 min relative to control
Homo sapiens [17] = species on record: Homo sapiens; experiment: Increase of […] urease using urea as substrate at 100 uM preincubated for 5 min before substrate addition measured after 10 min relative to control
Homo sapiens [18] = species on record: Homo sapiens; experiment: Increase of […] urease using urea as substrate at 0.01 uM preincubated for 5 min before substrate addition measured after 10 min relative to control
Homo sapiens [19] = species on record: Homo sapiens; experiment: Increase of […] urease using urea as substrate at 0.1 uM preincubated for 5 min before substrate addition measured after 10 min relative to control

Row | Compound | inhibition of growth at 100 µg/mL (Lemna aequinoctialis [1]) [%] | inhibition of growth at 1000 µg/mL (Lemna aequinoctialis [2]) [%] | inhibition at 200 µg/mL (Nakaseomyces glabratus) [%] | inhibition at 200 µg/mL (Fusarium solani) [%] | inhibition at 200 µg/mL (Microsporum canis) [%] | inhibition at 200 µg/mL (Aspergillus flavus) [%] | inhibition at 200 µg/mL (Candida albicans) [%] | LC50 at 24 h [3] [µM] | inhibition (Homo sapiens [4]) [%] | inhibition (Homo sapiens [5]) | inhibition (Homo sapiens [6]) [%] | inhibition (Homo sapiens [7]) | inhibition (Homo sapiens [8]) [%] | inhibition of growth at 10 µg/mL (Lemna aequinoctialis [9]) [%] | other results
1 | COc1ccc(NC(=S)N/N=C2\C(=O)Nc3ccc([N+](=O)[O-])cc32)cc1 | 15 | 25 | 0 | 0 | 0 | 20 | 0 | > 1340 | 47.6 | 44% | 33.6 | 38.6% | 46.6 | 10 | –
2 | O=C1Nc2ccc([N+](=O)[O-])cc2/C1=N/NC(=S)Nc1ccccc1 | – | – | 0 | 0 | 0 | 20 | 0 | > 1470 | 8.8 | 5.8% | 0.65 | inactive | 6 | – | inhibition of growth at 5 µg/mL (Lemna aequinoctialis [10]): 5%; inhibition of growth at 50 µg/mL (Lemna aequinoctialis [11]): 10%; inhibition of growth at 500 µg/mL (Lemna aequinoctialis [12]): 20%
3 | NC(N)=S [THIOUREA] | – | – | – | – | – | – | – | – | 8.16 | 14.5% | 20.9 | 8.09% | 94.3 | – | IC50 [13]: 50.1 µM
4 | C[n+]1ccc(-c2cc[n+](C)cc2)cc1 [PARAQUAT] | – | – | – | – | – | – | – | – | – | – | – | – | – | – | inhibition of growth at 0.015 µg/mL (Lemna aequinoctialis [14]): 100%
5 | O=C1Nc2ccc([N+](=O)[O-])cc2/C1=N/NC(=S)Nc1ccc(Br)cc1 | 15 | 20 | 0 | 0 | 0 | 20 | 0 | > 1190 | 18.9 | 4.5% | 6.6 | 8% | 4 | 10 | –
6 | COc1ccc(OC)c(NC(=S)N/N=C2\C(=O)Nc3ccc([N+](=O)[O-])cc32)c1 | 30 | 35 | 0 | 0 | 20 | 40 | 0 | > 1240 | 34.5 | 25.9% | 15.6 | 17.8% | 11 | 25 | –
7 | O=C1Nc2ccc([N+](=O)[O-])cc2/C1=N/NC(=S)Nc1ccc(I)cc1 | 10 | 25 | 0 | 0 | 0 | 0 | 0 | > 1070 | 57 | 51% | 52 | 47% | 50 | 5 | IC50 [13]: 0.901 µM
8 | O=C1Nc2ccc([N+](=O)[O-])cc2/C1=N/NC(=S)Nc1ccc(F)cc1 | 15 | 20 | 0 | 20 | 20 | 0 | 0 | > 1390 | – | – | – | – | – | 5 | Activity (Homo sapiens [15]): inactive; Activity (Homo sapiens [16]): inactive; Activity (Homo sapiens [17]): inactive; Activity (Homo sapiens [18]): inactive; Activity (Homo sapiens [19]): inactive
9 | O=C1Nc2ccc([N+](=O)[O-])cc2/C1=N/NC(=S)Nc1ccccc1C(F)(F)F | 15 | 25 | 0 | 0 | 20 | 0 | 0 | > 1220 | 21.6 | 23% | 30.9 | 20.9% | 21 | 10 | –
10 | Cc1cccc(NC(=S)N/N=C2\C(=O)Nc3ccc([N+](=O)[O-])cc32)c1 | 20 | 25 | 0 | 30 | 0 | 0 | 0 | > 1400 | 6.5 | 5.8% | 13.9 | 22% | 34 | 10 | –
11 | Cc1ccc(NC(=S)N/N=C2\C(=O)Nc3ccc([N+](=O)[O-])cc32)cc1 | 20 | 30 | 0 | 30 | 40 | 30 | 0 | > 1400 | 8 | inactive | 4 | 4% | 7 | 15 | –
12 | N#Cc1cccc(NC(=S)N/N=C2\C(=O)Nc3ccc([N+](=O)[O-])cc32)c1 | 15 | 25 | 0 | 15 | 20 | 20 | 0 | 1160 | 20.7 | 16% | 1.8 | 12.6% | 8.9 | 5 | –
13 | COc1ccc(NC(=S)N/N=C2\C(=O)Nc3ccc([N+](=O)[O-])cc32)c(OC)c1 | 25 | 30 | 0 | 0 | 20 | 20 | 0 | > 1240 | 68 | 66.8% | 61 | 53.5% | 37.9 | 15 | IC50 [13]: 27.9 µM
14 | C=CCNC(=S)N/N=C1\C(=O)Nc2ccc([N+](=O)[O-])cc21 | 35 | 50 | 0 | 0 | 20 | 0 | 0 | > 1630 | 21.6 | 15% | 12 | 8% | 15.9 | 25 | –
15 | CCCCCCNC(=S)N/N=C1\C(=O)Nc2ccc([N+](=O)[O-])cc21 | 35 | 60 | 0 | 0 | 50 | 0 | 0 | > 1430 | 60 | 58% | 37 | 27% | 40.9 | 25 | IC50 [13]: 0.44 µM
